We go through 3 compounds from patent US11998523B2, “Ascorbic acid and quinone compounds for treating Chagas disease” (IC-MedTech Corp., priority 2016, dated 2024).

Like-named read-outs stand apart in the source and are kept apart here.

Assay type in all cases: cell-based
The test system of assay [1] is parasitic forms of Trypanosoma cruzi. Briefly: Total ROS production (H2DCFDA labeling). The following applies: H2O2 20.0 μM. As for the experimental part: FIGS. 2A, 2B, and 2C show the effects of VC and VK3 on the total reactive oxygen species (ROS) production in parasitic forms of Trypanosoma cruzi, where the parasites were treated with VC and VK3, alone and combined, for 24 hrs using H2DCFDA labeling; and where epimastigote forms (FIG. 2A) were treated with 0.61 mM VC and 1.90 μM VK3, alone and combined; trypomastigote forms (FIG. 2B) were treated with 0.20 mM VC and 0.35 μM VK3, alone and combined; and amastigote forms (FIG. 2C) were treated with 0.18 mM VC and 0.30 μM VK3, alone and combined. H2O2 was used as a positive control. Total ROS were measured as an increase in fluorescence that is caused by the conversion of nonfluorescent dye to fluorescent DCF. The results are expressed as the mean fluorescence (in arbitrary units [A.U.]±SE) of at least three independent experiments. The symbol * indicates significant differences compared with the control group (untreated cells; p≤0.05). The production of total reactive oxygen species (total ROS) was evaluated in parasitic forms after exposure to VC and VK3 using the probe H2DCFDA. Epimastigote forms (1×10^6 parasites/mL) were evaluated after exposure to 0.61 mM VC and 1.90 μM VK3, alone and in combination, for 24 hrs at 28° C. Trypomastigote forms (1×10^7 parasites/mL) were evaluated after exposure to 0.20 mM VC and 0.35 μM VK3, alone and in combination, for 24 hrs at 37° C. in a 5% CO2 atmosphere. Amastigote forms (1×10^7 parasites/mL) were evaluated after exposure to 0.18 mM VC and 0.30 μM VK3, alone and in combination, for 24 hrs at 37° C. in a 5% CO2 atmosphere. Hydrogen peroxide (H2O2; 20.0 μM) was used as a positive control. Afterward, the parasites were centrifuged, washed, and resuspended in PBS. Parasites were loaded with 10.0 μM of the permeant probe H2DCFDA in the dark for 45 min.

The test system of assay [2] is intracellular amastigote forms of T. cruzi (Y strain) in LLCMK2 cells. Briefly: Activity against intracellular amastigote forms in LLCMK2 cells (survival index, Combination Index method). The following applies: Trypanosoma cruzi. As for the experimental part: All of the experiments were performed using the Y strain of T. cruzi. Pereira et al., Folia Clin. Biol. 1953, 20, 191-208. Epimastigote forms were axenically maintained at 28° C. with weekly transfers in liver infusion tryptose (LIT) medium supplemented with 10% heat-inactivated FBS, pH 7.4. Camargo, Rev. Inst. Med. Trop. São Paulo. 1964, 6, 93-100. Trypomastigote and amastigote forms were obtained from the previously infected monolayers of LLCMK2 cells (epithelial cells of monkey kidney [Macaca mulatta]; CCL-7; American Type Culture Collection, Rockville, MD, USA) in DMEM supplemented with 2 mM L-glutamine and 10% FBS, buffered with sodium bicarbonate in a 5% CO2 air mixture at 37° C. […] The number of infected cells and amastigotes was determined by randomly counting 200 cells. The results were calculated as the survival index, which was obtained by multiplying the percentage of infected cells by the number of amastigotes per infected LLCMK2 cell and then determining the percentage of inhibition. […] The data were calculated and mathematically expressed as a Combination Index: CI=(IC50 VK3 combined/IC50 VK3 alone)+(IC50 VC combined/IC50 VC alone) for epimastigotes and amastigotes and CI=(EC50 VK3 combined/EC50 VK3 alone)+(EC50 VC combined/EC50 VC alone) for trypomastigotes. […]

The subject of assay [3] is Trypomastigote forms of T. cruzi (Y strain). Briefly: Trypanocidal effect on trypomastigote forms (viability by mobility, Pizzi-Brener method, Combination Index method). The conditions noted are these: Trypanosoma cruzi. The procedure:
All of the experiments were performed using the Y strain of T. cruzi. Pereira et al., Folia Clin. Biol. 1953, 20, 191-208. Epimastigote forms were axenically maintained at 28° C. with weekly transfers in liver infusion tryptose (LIT) medium supplemented with 10% heat-inactivated FBS, pH 7.4. Camargo, Rev. Inst. Med. Trop. São Paulo. 1964, 6, 93-100. Trypomastigote and amastigote forms were obtained from the previously infected monolayers of LLCMK2 cells (epithelial cells of monkey kidney [Macaca mulatta]; CCL-7; American Type Culture Collection, Rockville, MD, USA) in DMEM supplemented with 2 mM L-glutamine and 10% FBS, buffered with sodium bicarbonate in a 5% CO2 air mixture at 37° C. […] After incubation, the viability of the parasites was determined by examining mobility under a light microscope (Olympus CX31) using the Pizzi-Brener method. […] The data were calculated and mathematically expressed as a Combination Index: CI=(IC50 VK3 combined/IC50 VK3 alone)+(IC50 VC combined/IC50 VC alone) for epimastigotes and amastigotes and CI=(EC50 VK3 combined/EC50 VK3 alone)+(EC50 VC combined/EC50 VC alone) for trypomastigotes. […] The data were also graphically expressed as isobolograms by plotting concentrations of vitamins that alone or in combination induced activity against 50% of the forms of the parasite.

In assay [4] the test system is Epimastigote forms of T. cruzi (Y strain). Briefly: Trypanocidal effect on epimastigote forms (counting in Neubauer hemocytometer, Combination Index method). The conditions noted are these: Trypanosoma cruzi. The procedure:
All of the experiments were performed using the Y strain of T. cruzi. Pereira et al., Folia Clin. Biol. 1953, 20, 191-208. Epimastigote forms were axenically maintained at 28° C. with weekly transfers in liver infusion tryptose (LIT) medium supplemented with 10% heat-inactivated FBS, pH 7.4. Camargo, Rev. Inst. Med. Trop. São Paulo. 1964, 6, 93-100. Trypomastigote and amastigote forms were obtained from the previously infected monolayers of LLCMK2 cells (epithelial cells of monkey kidney [Macaca mulatta]; CCL-7; American Type Culture Collection, Rockville, MD, USA) in DMEM supplemented with 2 mM L-glutamine and 10% FBS, buffered with sodium bicarbonate in a 5% CO2 air mixture at 37° C. […] The number of epimastigote forms was determined by counting in a Neubauer hemocytometer after 96 hrs. The data were calculated and mathematically expressed as a Combination Index: CI=(IC50 VK3 combined/IC50 VK3 alone)+(IC50 VC combined/IC50 VC alone) for epimastigotes and amastigotes and CI=(EC50 VK3 combined/EC50 VK3 alone)+(EC50 VC combined/EC50 VC alone) for trypomastigotes. […] The data were also graphically expressed as isobolograms by plotting concentrations of vitamins that alone or in combination induced activity against 50% of the forms of the parasite.

For the compound `OO` [H2O2, Hydrogen peroxide], the “increase in ROS production (positive control)” value was 60% in assay [1] (amastigotes), 69% in assay [1] (epimastigotes) and 77% in assay [1] (trypomastigotes).
Regarding `O=C1O[C@H]([C@@H](O)CO)C(O)=C1O` [VC, L-ascorbic acid], the IC50 in assay [2] (LLC-MK2, combined with 0.30 μM VK3, read-out: VC concentration in the combination with synergistic effect on 50% of the parasites (IC50 VC combined)) amounted to 180 µM; in assay [4] (combined with 1.90 μM VK3, read-out: VC concentration in the combination with synergistic effect on 50% of the parasites (IC50 VC combined)) it was 610 µM. Also, the EC50 in assay [3] (combined with 0.35 μM VK3, read-out: VC concentration in the combination with synergistic effect on 50% of the parasites (EC50 VC combined)) is 200 µM.
Take `CC1=CC(=O)c2ccccc2C1=O` [VK3, 2-methyl-1,4-naphthalenedione]: the IC50 amounted to 0.3 µM in assay [2] (LLC-MK2, combined with 0.18 mM VC, read-out: VK3 concentration in the combination with synergistic effect on 50% of the parasites (IC50 VK3 combined)) and 1.9 µM in assay [4] (.61 mM VC, read-out: VK3 concentration in the combination with synergistic effect on 50% of the parasites (IC50 VK3 combined)). Further, the EC50 in assay [3] (combined with 0.20 mM VC, read-out: VK3 concentration in the combination with synergistic effect on 50% of the parasites (EC50 VK3 combined)) worked out at 0.35 µM.
